{"source": "ChEMBL document CHEMBL1201862", "about": "“PubChem BioAssay data set” (2004)", "key": {"[1]": {"target": "Eukaryotic translation initiation factor 4E (Mus musculus, UniProt P63073)", "experiment": "blockers of eIF4G binding by eIF4E – biochemical, TR-FRET, dose response (AID 855);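 further: potency for disrupting eIF4E binding to eIF4GI seen as loss of FRET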", "type": "functional"}, "[2]": {"target": "T1, Carboxy-terminal domain RNA polymerase II polypeptide A small phosphatase 1 (Homo sapiens, UniProt Q9GZU7)", "T1 sequence (Q9GZU7 whole entry)": "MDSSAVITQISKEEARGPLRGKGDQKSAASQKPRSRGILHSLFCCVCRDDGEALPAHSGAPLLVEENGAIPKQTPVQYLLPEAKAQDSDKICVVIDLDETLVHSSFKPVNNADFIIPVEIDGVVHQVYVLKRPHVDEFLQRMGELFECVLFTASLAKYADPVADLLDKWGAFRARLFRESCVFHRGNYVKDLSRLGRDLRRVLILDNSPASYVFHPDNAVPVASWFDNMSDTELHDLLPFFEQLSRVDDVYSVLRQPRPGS", "experiment": "CTDSP1 inhibitors, concentration-response, biochemical, absorbance readout, ultra-high-throughput screen actives (AID 540297)", "type": "functional"}, "[3]": {"target": "T2, Coagulation factor XII (Homo sapiens, UniProt P00748)", "T2 sequence (P00748 whole entry)": "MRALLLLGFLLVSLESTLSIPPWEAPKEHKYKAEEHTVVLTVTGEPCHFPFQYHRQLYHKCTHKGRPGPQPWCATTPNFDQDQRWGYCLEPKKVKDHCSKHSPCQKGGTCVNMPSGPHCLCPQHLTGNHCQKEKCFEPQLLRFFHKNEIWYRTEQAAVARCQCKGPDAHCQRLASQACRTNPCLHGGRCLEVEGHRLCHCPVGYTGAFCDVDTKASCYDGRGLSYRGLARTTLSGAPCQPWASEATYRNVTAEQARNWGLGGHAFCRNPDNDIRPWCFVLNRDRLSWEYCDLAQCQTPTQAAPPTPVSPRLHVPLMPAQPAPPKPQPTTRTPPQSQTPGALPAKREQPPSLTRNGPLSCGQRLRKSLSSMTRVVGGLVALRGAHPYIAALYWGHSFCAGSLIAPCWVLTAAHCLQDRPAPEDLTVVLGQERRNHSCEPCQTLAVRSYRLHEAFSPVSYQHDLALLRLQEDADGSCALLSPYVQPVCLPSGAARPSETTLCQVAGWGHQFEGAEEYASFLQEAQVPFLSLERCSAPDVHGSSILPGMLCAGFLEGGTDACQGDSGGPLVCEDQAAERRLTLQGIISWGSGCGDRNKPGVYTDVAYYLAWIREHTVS", "type": "functional"}, "[4]": {"tested_on": "Streptococcus", "experiment": "GAS UMAA2166 growth inhibition – luminescence, BacTiterGlo, counter-screen for streptokinase expression inhibitor project, dose response (AID 1915);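 further: potency for reduction of bacterial viability or growth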", "type": "functional, organism-based"}, "[5]": {"experiment": "A Cell Based Secondary Assay To Explore Cytotoxicity of Compounds that Sensitize Mycobacterium Tuberculosis to Beta-Lactam Antibiotics.", "type": "functional"}, "[6]": {"experiment": "Trypanosoma cruzi growth suppression in host cells – NIH3T3 host cells, beta-gal luminescence, confirmation (AID 2044);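 further: intracellular parasites grown in NIH/3T3 mouse fibroblasts as host cells; luminescent beta-galactosidase reporter signal from transgenic T. cruzi replicating inside host cells; inhibitors lower the luminescence signal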", "type": "functional, cell-based"}, "[7]": {"target": "T3, Streptokinase A (Streptococcus pyogenes serotype M1, UniProt P10520)", "T3 sequence (P10520 whole entry)": "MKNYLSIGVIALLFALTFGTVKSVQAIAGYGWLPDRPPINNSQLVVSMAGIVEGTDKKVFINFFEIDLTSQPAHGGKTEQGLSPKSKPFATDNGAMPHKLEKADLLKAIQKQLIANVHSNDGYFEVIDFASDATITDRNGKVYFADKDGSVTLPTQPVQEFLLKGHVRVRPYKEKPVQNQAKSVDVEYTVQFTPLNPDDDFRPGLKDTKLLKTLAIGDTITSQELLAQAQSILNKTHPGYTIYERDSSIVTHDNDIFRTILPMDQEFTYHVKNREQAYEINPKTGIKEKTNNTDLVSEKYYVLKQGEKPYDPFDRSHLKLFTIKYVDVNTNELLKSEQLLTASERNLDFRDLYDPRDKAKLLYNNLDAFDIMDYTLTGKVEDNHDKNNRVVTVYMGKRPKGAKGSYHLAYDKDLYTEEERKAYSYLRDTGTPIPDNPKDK", "experiment": "viability-normalized secreted streptokinase activity reduction – plasminogen activation absorbance, OD405, dose response (AID 1914)", "type": "functional, Streptococcus pyogenes M1 GAS"}, "[8]": {"experiment": "NIH3T3 cell viability loss – ATP luminescence, mouse fibroblasts, counter-screen, dose response (AID 2010);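 further: cells exposed to compound for about 90 hours before reading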", "type": "functional, cell-based"}, "[9]": {"tested_on": "Streptococcus sp. 'group A'", "experiment": "Streptococcus pyogenes SK(-)GAS viability under kanamycin – luminescence, BacTiterGlo, confirmation, counter-screen for streptokinase expression inhibitor project, dose response (AID 1900)", "type": "functional, organism-based"}, "[10]": {"tested_on": "HEK293", "experiment": "cells", "type": "functional, cell-based", "conditions": "Homo sapiens"}, "[11]": {"target": "Nucleotide-binding oligomerization domain-containing protein 2 (Homo sapiens, UniProt Q9HC29)", "experiment": "inhibition of NOD2-driven NF-kB reporter – cell-based, luminescence, uHTS, HEK293 (AID 1566)", "type": "functional"}, "[12]": {"tested_on": "HEK293", "experiment": "inhibition of NOD1-driven NF-kB reporter – cell-based, luminescence, uHTS, primary screen (AID 1578)", "type": "functional", "conditions": "Homo sapiens"}, "[13]": {"tested_on": "HEK293", "experiment": "cells", "type": "functional, cell-based", "conditions": "Homo sapiens", "remark": "listed apart in the source"}, "[14]": {"tested_on": "HEK293", "experiment": "cells", "type": "functional, cell-based", "conditions": "Homo sapiens", "remark": "listed apart in the source"}, "[15]": {"tested_on": "HEK293", "experiment": "NOD2 signaling inhibitors in MDP-stimulated cells, cell-based, uHTS, luminescence (AID 2001)", "type": "functional", "conditions": "Homo sapiens"}, "[16]": {"experiment": "Luminescence Cell-Based Dose Retest to Confirm Inhibitors of Cancer Stem Cells. [Related pubchem assays (depositor defined):AID2717, AID2721]", "type": "functional", "conditions": "Homo sapiens"}, "[17]": {"target": "Heat shock protein HSP 90-alpha (Homo sapiens, UniProt P07900)", "type": "functional, organism-based"}, "[18]": {"target": "Beta-galactosidase (Escherichia coli, UniProt Q8VNN2)", "experiment": "detection-enzyme interference by beta-gal modulators – biochemical, E. coli enzyme, set 3, artefact control for CCR6 antagonist project, dose response (AID 504712)", "type": "functional"}, "[19]": {"target": "DNA dC->dU-editing enzyme APOBEC-3G (Homo sapiens, UniProt Q9HC16)", "experiment": "Dose Response confirmation of small molecule APOBEC3G DNA Deaminase Inhibitors via a fluorescence-based single-stranded DNA deaminase assay. [Related pubchem assays (depositor defined):AID493012, AID493028]", "type": "functional"}, "[20]": {"experiment": "A cytotoxicity screen of small molecule inhibitors of the PhoP region in Salmonella typhi identified in the primary screen. [Related pubchem assays: 1850, 1864, 1985 ]", "type": "functional"}, "[21]": {"experiment": "HIV-1 Vif–A3G interaction blockers – biochemical, TR-FRET, GST-Vif 1-94, biotin-A3G peptide, dose response retest, primary screen (AID 1117319);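 further: TR-FRET signal of purified GST-Vif binding a biotinylated A3G peptide; inhibitors lower the FRET signal by blocking Vif and A3G binding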", "type": "functional"}, "[22]": {"target": "Troponin, cardiac muscle (Homo sapiens, UniProt P19429+P45379+P63316)", "experiment": "Fluorescence-based biochemical high throughput dose response assay for activators of the calcium sensitivity of cardiac Regulated Thin Filaments (RTF). [Related pubchem assays (depositor defined):AID493008, AID493018, AID504382, AID504383]", "type": "protein-complex assay"}}, "note": "Active and inactive are the calls of the source.", "data": [{"smiles": "CCOc1ccccc1NC(=O)N1CCC(NC(=O)c2cccc(C)c2)CC1", "values": [{"measurement": "IC50", "setting": "[1]", "value": "58 µM (inactive)"}, {"measurement": "IC50", "setting": "[2]", "value": "18.8 µM (active)"}]}, {"smiles": "Cc1ccc(-n2ncc3c(O)ncnc32)c(C)c1", "values": [{"measurement": "IC50", "setting": "[3]", "value": "> 50 µM (inactive)"}]}, {"smiles": "O=[N+]([O-])c1ccc2c(c1)c1ccccc1n2CCO", "values": [{"measurement": "IC50", "setting": "[3]", "value": "> 50 µM (inactive)"}]}, {"smiles": "CCOC(=O)c1sc(NC(=O)Nc2ccc(Cl)cc2)cc1C", "values": [{"measurement": "EC50", "setting": "[4]", "value": "15.6 µM (active)"}, {"measurement": "CC50", "setting": "[5]", "value": "24.9 µM (active)"}, {"measurement": "EC50", "setting": "[6]", "value": "1.5 µM (active)"}, {"measurement": "EC50", "setting": "[7]", "value": "26.1 µM (inconclusive)"}, {"measurement": "EC50", "setting": "[8]", "value": "> 60 µM (not active)"}, {"measurement": "EC50", "setting": "[9]", "value": "6.12 µM (active)"}]}, {"smiles": "Cc1ccc(C(C)C)c(OCc2ccc(-c3nnco3)cc2)c1", "values": [{"measurement": "IC50", "setting": "[10]", "value": "> 20 µM (inactive)"}, {"measurement": "EC50", "setting": "[11]", "value": "14.6 µM (active)"}, {"measurement": "EC50", "setting": "[12]", "value": "13.2 µM (active)"}, {"measurement": "IC50", "setting": "[13]", "value": "15.2 µM (active)"}, {"measurement": "IC50", "setting": "[14]", "value": "> 20 µM (inactive)"}, {"measurement": "IC50", "setting": "[15]", "value": "> 20 µM (inactive)"}]}, {"smiles": "CCOC(=O)/C=C/C(=O)Nc1cccc([N+](=O)[O-])c1", "values": [{"measurement": "AC50", "setting": "[16]", "value": "5.87 µM (active)"}, {"measurement": "AC50", "setting": "[17]", "value": "3.97 µM (active)"}, {"measurement": "IC50", "setting": "[18]", "value": "> 66.6 µM (inactive)"}, {"measurement": "IC50", "setting": "[19]", "value": "11 µM (active)"}]}, {"smiles": "COC(=O)c1ccc(NCC(=O)Nc2cc(C)cc(C)c2)cc1", "values": [{"measurement": "IC50", "setting": "[3]", "value": "> 50 µM (inactive)"}]}, {"smiles": "O=C(CSc1nc(-c2ccc(F)cc2)c[nH]1)NCc1ccco1", "values": [{"measurement": "EC50", "setting": "[20]", "value": "> 50 µM (active)"}]}, {"smiles": "CCn1c(=N)n(CC(=O)c2ccc(OC)cc2)c2ccccc21", "values": [{"measurement": "IC50", "setting": "[21]", "value": "> 100 µM (active)"}, {"measurement": "EC50", "setting": "[20]", "value": "> 50 µM (active)"}]}, {"smiles": "CCN(CC)C(=S)SCC(=O)c1c(C)[nH]c2ccccc12", "values": [{"measurement": "EC50", "setting": "[22]", "value": "> 71.5 µM (inactive)"}]}]}
